Experimental data published in patent US20050202513A1.
“Also recorded” adds a separate entry of the source. Structures can show the parent of a compound that is named as a salt. Each block holds one compound with its values, some of them ahead of it.

Assays:
[1] = test system: cancer patient; test: Blood serum human H-FABP level, sandwich ELISA (MARKIT M H-FABP kit); conditions: cut-off 6.2 ng/mL
[2] = test system: cancer patient; test: Echocardiogram analysis, ejection fraction of the heart; format: in vivo, human; conditions: cancer patient administered with adriamycin, healthy volunteer not less than 60%
Experimental: By the echocardiogram analysis, the heart pump function was evaluated based on the ejection fraction (EF) of the heart as calculated by the following formula: Ejection fraction (%)={(left ventricular relaxation terminal diameter^2−left ventricular contraction terminal diameter^2)/left ventricular relaxation terminal diameter^2)×100
The ejection fraction of healthy volunteers is known to be not less than 60%.

[3] = test system: cancer patient; test: Blood Troponin T level, sandwich ELISA; conditions: cut-off 0.1 ng/mL
[4] = test system: cancer patient; test: Electrocardiogram analysis; format: in vivo, human; conditions: adriamycin patient
[5] = test system: cancer patient; test: Measurement of creatine kinase in blood
[6] = test system: cancer patient; test: Blood Myosin Light Chain I level, sandwich RIA; conditions: cut-off 2.5 ng/mL
[7] = test system: cancer patient; test: Clinical diagnosis of cardiac function; format: in vivo, human; conditions: cancer patient administered with daunorubicin hydrochloride; expression of generalized edema
Experimental: The second blood sampling in the Table was performed one month after the first blood sampling.

[8] = adriamycin patient, first blood sampling
[9] = adriamycin patient, second blood sampling
[10] = adriamycin patient, third blood sampling
[11] = daunorubicin hydrochloride patient, first blood sampling
[12] = daunorubicin hydrochloride patient, second blood sampling (one month after the first)

- Blood concentration Human H-FABP ([1]; adriamycin patient, blood serum, first blood sampling): 6.8 ng/mL
- Blood concentration Human H-FABP ([1]; adriamycin patient, blood serum, second blood sampling (about 2.5 months after the first)): 9.0 ng/mL
- Blood concentration Human H-FABP ([1]; adriamycin patient, blood serum, third blood sampling (20 days after the second)): 19.6 ng/mL
- EF (ejection fraction) ([2]; first blood sampling): 53%
- EF (ejection fraction) ([2]; third blood sampling (20 days after the second)): 37%
- Blood concentration Troponin T [3, 8]: <0.01 ng/mL
- Blood concentration Troponin T [3, 9]: 0.01 ng/mL
- Blood concentration Troponin T [3, 10]: 0.41 ng/mL
- Blood concentration Creatine kinase ([5]; adriamycin patient, first blood sampling, healthy 25-180 U/L (male), 20-150 U/L (female)): 37 U/L
- Blood concentration Creatine kinase ([5]; adriamycin patient, second blood sampling (about 2.5 months after the first)): 36 U/L
- Blood concentration Creatine kinase ([5]; adriamycin patient, third blood sampling (20 days after the second)): 33 U/L
- Blood concentration Myosin Light Chain I [6, 8]: <1.0 ng/mL
- Blood concentration Myosin Light Chain I [6, 9]: <1.0 ng/mL
- Blood concentration Myosin Light Chain I [6, 10]: <1.0 ng/mL
Compound: COc1cccc2c1C(=O)c1c(O)c3c(c(O)c1C2=O)C[C@@](O)(C(=O)CO)C[C@@H]3O[C@H]1C[C@H](N)[C@H](O)[C@H](C)O1 [adriamycin, Doxorubicin hydrochloride]
- Electrocardiogram finding ([4]; about 1 week before the third blood sampling, hydrochloride): T wave decreased; also recorded: sinus tachycardia and supraventricular extrasystole
- Electrocardiogram finding ([4]; about 2 weeks before the first blood sampling): extension of QTc

- Blood concentration Human H-FABP [1, 11]: 7.6 ng/mL
- Blood concentration Human H-FABP [1, 12]: 6.9 ng/mL
- Diagnosis [7]: cardiac failure
- Blood concentration Troponin T [3, 11]: <0.01 ng/mL
- Blood concentration Troponin T [3, 12]: <0.01 ng/mL
- Blood concentration Creatine kinase ([5]; daunorubicin hydrochloride patient with cardiac failure, first blood sampling): 11 U/L
- Blood concentration Creatine kinase ([5]; daunorubicin hydrochloride patient with cardiac failure, second blood sampling (one month after the first)): 7 U/L
- Blood concentration Myosin Light Chain I [6, 11]: <1.0 ng/mL
- Blood concentration Myosin Light Chain I [6, 12]: 1.4 ng/mL
Compound: COc1cccc2c1C(=O)c1c(O)c3c(c(O)c1C2=O)C[C@@](O)(C(C)=O)C[C@@H]3O[C@H]1C[C@H](N)[C@H](O)[C@H](C)O1 [daunorubicin hydrochloride]
